“And” between values parts separate entries of the source, which are not always exact repeats. Equal values may be shown once.
Key:
male Wistar rats = test: ICSS thresholds during spontaneous nicotine withdrawal; assay type: in vivo, rat
From the text: Animals were trained to respond according to a modification of the discrete-trial current-threshold procedure of Kornetsky and Esposito (Fed Proc 38:2473-2476, 1979), which has been described in detail previously (Markou and Koob, 1992 Physiol Behav 51:111-119). Briefly, a trial was initiated by the delivery of a non-contingent electrical stimulus. […] The current intensity delivered was adjusted for each animal and typically ranged from 50 to 200 μA. […] After a variable inter-trial interval (7.5-12.5 sec, average of 10 sec), another trial was initiated with the delivery of a non-contingent electrical stimulus. […] Responding during the inter-trial interval delayed the onset of the next trial by 12.5 sec. Current levels were varied in alternating descending and ascending series. A set of three trials was presented for each current intensity. Current intensities were altered in 5 μA steps. In each testing session, four alternating descending-ascending series were presented. […] The overall threshold of the session was defined as the mean of the thresholds for the four individual series. Each testing session was ˜30 min in duration. The latency between the onset of the non-contingent stimulus and a positive response was recorded as the response latency. The response latency for each test session was defined as the mean response latency of all trials during which a positive response occurred. After establishment of stable ICSS reward thresholds, rats were tested in the ICSS procedure once daily except for the spontaneous nicotine withdrawal experiment when rats were tested at time-points according to the experimental design.
Osmotic mini-pumps were surgically removed from nicotine-treated rats (n=15) (defined as rats having been prepared with mini-pumps delivering 3.16 mg/kg/day nicotine free-base for at least seven days) or corresponding control rats (n=17; rats prepared with vehicle-containing mini-pumps). All rats were then tested in the ICSS procedure at 12, 18, 24, 36, 48 and 72 hr after the removal of osmotic mini-pumps. These time points were chosen based on the time course of threshold elevations previously observed during spontaneous nicotine withdrawal after removal of nicotine-delivering osmotic mini-pumps (Harrison et al., 2001, Neuropsychopharmacology 25:55-71; K.L.). […] Thirty min before being tested at the 18 h time-point, one group of nicotine withdrawing and one group of control rats were injected with LY341495 (1 mg/kg); the remaining rats were injected with vehicle.

Male DBA/2J mice = test: Intravenous nicotine self-administration in drug-naive mice; assay type: in vivo, mouse
Procedure: Acute self-administration of nicotine was carried out using a previously described method (Semenova et al. 1995, 1999; Kuzmin et al. 1996a, 1997). The tails of the mice were fixed to the surface of the apparatus during the testing sessions to allow drug delivery; the fixing of the tail allowed the mice to move all of their four paws, head and entire body. […] The only cue associated with the delivery of the drug or vehicle infusion was the noise of the pump. Mice were tested either once or twice, with approximately one month between each test. The second test only occurred in a subset of the original set of mice (2-7 pairs of mice from each of the original groups). This was done to increase the number of subjects/condition, and involved randomly assigning and testing these mice under a different set of conditions than in the original test (i.e., different nicotine and/or MPEP dose).
Saline or one of four nicotine doses (0.016, 0.048, 0.16, 0.48 μg/inf) were made available to different groups of animals. Each group consisted of 9-17 pairs of animals, including 2-7 mice per group that had previously undergone one testing session at least one month previously (see above). Pre-treatment with MPEP (0, 5, 10, 20 mg/kg intraperitoneally) occurred 15 minutes prior to the initiation of the test session.
Data analyses were based on the comparison of both active and passive mouse nose-pokes in each pair, using the formula: R=log(AT/PT)−log(ABL/PBL), where (AT/PT) is the ratio of the total number of active versus passive mouse nose-pokes during the 30-min test, and (ABL/PBL) is the ratio of the total number of active versus passive mouse nose-pokes during the 10-min pre-test. […] Some data-points (9/237 pairs of mice) were excluded from the final analyses based on whether or not they lay within 2 standard deviations of the group mean for that specific condition. Nicotine self-administration data, obtained after saline pre-treatment, were analyzed using a one-way ANOVA with nicotine (4 levels) defined as the between-subjects factor. R-criterion data were analyzed using two-way ANOVAs with MPEP dose (4 levels) and nicotine dose (4 levels) defined as the between-subjects factors. Pre-planned R-criterion data analyses were performed using one-way ANOVAs for each available dose of self-administered nicotine and saline, with MPEP dose (4 levels) defined as the between-subject factor. Appropriate individual comparisons were performed using the Student-Newman-Keuls post hoc test. […] Body weights and pre-test nose-poke activity levels were analyzed with three-way ANOVAs (nicotine dose, MPEP dose and mouse, i.e. active/passive, defined as between-subjects factors).

rats = conditions: 2.5-10 mg/kg i.p.; cited from earlier work
[1] = MPEP 5 mg/kg, Nicotine 0 μg/inf
[2] = MPEP 5 mg/kg, Nicotine 0.016 μg/inf
[3] = MPEP 5 mg/kg, Nicotine 0.048 μg/inf
[4] = MPEP 5 mg/kg, Nicotine 0.16 μg/inf
[5] = MPEP 5 mg/kg, Nicotine 0.48 μg/inf
[6] = MPEP 10 mg/kg, Nicotine 0 μg/inf
[7] = MPEP 10 mg/kg, Nicotine 0.016 μg/inf
[8] = MPEP 10 mg/kg, Nicotine 0.048 μg/inf
[9] = MPEP 10 mg/kg, Nicotine 0.16 μg/inf
[10] = MPEP 10 mg/kg, Nicotine 0.48 μg/inf
[11] = MPEP 20 mg/kg, Nicotine 0 μg/inf
[12] = MPEP 20 mg/kg, Nicotine 0.016 μg/inf
[13] = MPEP 20 mg/kg, Nicotine 0.048 μg/inf
[14] = MPEP 20 mg/kg, Nicotine 0.16 μg/inf
[15] = MPEP 20 mg/kg, Nicotine 0.48 μg/inf

SMILES: CN1CCCC1c1cccnc1 (single isomer, unassigned; (-)) [nicotine, (−)-1-methyl-2-(3-pyridyl) pyrrolidine]
- ICSS reward threshold elevation (male Wistar rats; 12 h after removal of mini-pumps delivering 3.16 mg/kg/day nicotine free-base, two groups before treatment (n=8, n=7)): 117.67±3.1% and 119.93±3.5%
- ICSS Thresholds (male Wistar rats; withdrawal from chronic nicotine treatment): produced robust ICSS threshold elevations compared to control rats
- self-administration (R-criterion) (Male DBA/2J mice; 0.048 μg/inf nicotine, saline pretreatment): significantly different from saline administration

SMILES: Cc1cccc(C#Cc2ccccc2)n1 [MPEP, 2-methyl-6-(phenylethynyl)-pyridine]
- total self-injected nicotine dose (Male DBA/2J mice; 0.048 μg/inf nicotine): no significant effect of MPEP on total self-injected nicotine dose
- R-criterion (Male DBA/2J mice; 20 mg/kg MPEP, 0.048 μg/inf nicotine): a trend for 20 mg/kg MPEP to decrease the R-criterion below zero
- nose-pokes, active pre-test (Male DBA/2J mice; [1]): 8.19 ± 1.03 responses per minute
- nose-pokes, active test (Male DBA/2J mice; [1]): 4.99 ± 1.17 responses per minute
- nose-pokes, passive pre-test (Male DBA/2J mice; [1]): 8.38 ± 0.96 responses per minute
- nose-pokes, passive test (Male DBA/2J mice; [1]): 6.41 ± 1.38 responses per minute
- nose-pokes, active pre-test (Male DBA/2J mice; [2]): 7.86 ± 0.87 responses per minute
- nose-pokes, active test (Male DBA/2J mice; [2]): 2.62 ± 0.49 responses per minute
- nose-pokes, passive pre-test (Male DBA/2J mice; [2]): 8.01 ± 0.91 responses per minute
- nose-pokes, passive test (Male DBA/2J mice; [2]): 3.46 ± 0.74 responses per minute
- nose-pokes, active pre-test (Male DBA/2J mice; [3]): 9.13 ± 1.37 responses per minute
- nose-pokes, active test (Male DBA/2J mice; [3]): 3.43 ± 0.67 responses per minute
- nose-pokes, passive pre-test (Male DBA/2J mice; [3]): 8.93 ± 1.36 responses per minute
- nose-pokes, passive test (Male DBA/2J mice; [3]): 4.45 ± 1.06 responses per minute
- nose-pokes, active pre-test (Male DBA/2J mice; [4]): 8.32 ± 0.94 responses per minute
- nose-pokes, active test (Male DBA/2J mice; [4]): 4.67 ± 0.95 responses per minute
- nose-pokes, passive pre-test (Male DBA/2J mice; [4]): 8.48 ± 3.31 responses per minute
- nose-pokes, passive test (Male DBA/2J mice; [4]): 4.32 ± 2.37 responses per minute
- nose-pokes, active pre-test (Male DBA/2J mice; [5]): 8.12 ± 1.17 responses per minute
- nose-pokes, active test (Male DBA/2J mice; [5]): 3.04 ± 0.73 responses per minute
- nose-pokes, passive pre-test (Male DBA/2J mice; [5]): 8.58 ± 1.38 responses per minute
- nose-pokes, passive test (Male DBA/2J mice; [5]): 3.25 ± 0.88 responses per minute
- nose-pokes, active pre-test (Male DBA/2J mice; [6]): 7.95 ± 0.99 responses per minute
- nose-pokes, active test (Male DBA/2J mice; [6]): 4.92 ± 1.1 responses per minute
- nose-pokes, passive pre-test (Male DBA/2J mice; [6]): 8.00 ± 1.06 responses per minute
- nose-pokes, passive test (Male DBA/2J mice; [6]): 5.86 ± 1.56 responses per minute
- nose-pokes, active pre-test (Male DBA/2J mice; [7]): 7.79 ± 0.83 responses per minute
- nose-pokes, active test (Male DBA/2J mice; [7]): 6.48 ± 1.05 responses per minute
- nose-pokes, passive pre-test (Male DBA/2J mice; [7]): 8.22 ± 0.87 responses per minute
- nose-pokes, passive test (Male DBA/2J mice; [7]): 4.26 ± 0.94 responses per minute
- nose-pokes, active pre-test (Male DBA/2J mice; [8]): 7.43 ± 0.98 responses per minute
- nose-pokes, active test (Male DBA/2J mice; [8]): 3.92 ± 1.18 responses per minute
- nose-pokes, passive pre-test (Male DBA/2J mice; [8]): 8.06 ± 1.39 responses per minute
- nose-pokes, passive test (Male DBA/2J mice; [8]): 5.83 ± 1.72 responses per minute
- nose-pokes, active pre-test (Male DBA/2J mice; [9]): 7.12 ± 0.66 responses per minute
- nose-pokes, active test (Male DBA/2J mice; [9]): 4.19 ± 0.81 responses per minute
- nose-pokes, passive pre-test (Male DBA/2J mice; [9]): 7.20 ± 0.69 responses per minute
- nose-pokes, passive test (Male DBA/2J mice; [9]): 4.62 ± 0.82 responses per minute
- nose-pokes, active pre-test (Male DBA/2J mice; [10]): 7.49 ± 0.86 responses per minute
- nose-pokes, active test (Male DBA/2J mice; [10]): 3.58 ± 0.73 responses per minute
- nose-pokes, passive pre-test (Male DBA/2J mice; [10]): 7.48 ± 0.88 responses per minute
- nose-pokes, passive test (Male DBA/2J mice; [10]): 3.81 ± 0.47 responses per minute
- nose-pokes, active pre-test (Male DBA/2J mice; [11]): 6.98 ± 1.18 responses per minute
- nose-pokes, active test (Male DBA/2J mice; [11]): 5.96 ± 1.69 responses per minute
- nose-pokes, passive pre-test (Male DBA/2J mice; [11]): 8.50 ± 1.43 responses per minute
- nose-pokes, passive test (Male DBA/2J mice; [11]): 6.33 ± 1.66 responses per minute
- nose-pokes, active pre-test (Male DBA/2J mice; [12]): 7.10 ± 0.87 responses per minute
- nose-pokes, active test (Male DBA/2J mice; [12]): 5.48 ± 1.09 responses per minute
- nose-pokes, passive pre-test (Male DBA/2J mice; [12]): 7.35 ± 0.85 responses per minute
- nose-pokes, passive test (Male DBA/2J mice; [12]): 8.77 ± 1.85 responses per minute
- nose-pokes, active pre-test (Male DBA/2J mice; [13]): 8.36 ± 1.07 responses per minute
- nose-pokes, active test (Male DBA/2J mice; [13]): 3.56 ± 1.04 responses per minute
- nose-pokes, passive pre-test (Male DBA/2J mice; [13]): 8.31 ± 1.28 responses per minute
- nose-pokes, passive test (Male DBA/2J mice; [13]): 5.29 ± 1.11 responses per minute
- nose-pokes, active pre-test (Male DBA/2J mice; [14]): 7.50 ± 1.25 responses per minute
- nose-pokes, active test (Male DBA/2J mice; [14]): 5.06 ± 1.52 responses per minute
- nose-pokes, passive pre-test (Male DBA/2J mice; [14]): 7.56 ± 1.32 responses per minute
- nose-pokes, passive test (Male DBA/2J mice; [14]): 7.97 ± 1.76 responses per minute
- nose-pokes, active pre-test (Male DBA/2J mice; [15]): 7.31 ± 0.98 responses per minute
- nose-pokes, active test (Male DBA/2J mice; [15]): 4.67 ± 1.22 responses per minute
- nose-pokes, passive pre-test (Male DBA/2J mice; [15]): 7.08 ± 0.94 responses per minute
- nose-pokes, passive test (Male DBA/2J mice; [15]): 4.35 ± 0.98 responses per minute
- nicotine self-administration (R-criterion) (Male DBA/2J mice; MPEP 5, 10, 20 mg/kg, 0.048 μg/inf nicotine): significantly reduced nicotine self-administration at all doses tested
- nose-poke responding (Male DBA/2J mice; active mice, 0.048 μg/inf nicotine): significantly decreased nose-poke responding in the active mice
- exploratory locomotor activity (rats): had no effect on exploratory locomotor activity in rats

— patent US8354447B2, “mGLU receptors antagonists for treating disorders associated with mGLU receptors including addiction and depression” (The Scripps Research Institute, priority 2002, dated 2013)
